Test results published in paper PMC11940194, “Synthesis, Antiproliferative Activity, and ADME Profiling of Novel Racemic and Optically Pure Aryl-Substituted Purines and Purine Bioisosteres” (Biomolecules, 2025).

What was measured:
[1] = system: MCF-7, CFPAC-1, HT-29, HepG2 tumor cell lines and HFF-1 fibroblasts; assay: Antiproliferative activity, whole cell line panel; assay type: cell-based, human; conditions: tested cell lines
Protocol: The human ATCC tumor cell lines breast adenocarcinoma (MCF7), colorectal carcinoma (HT-29), pancreatic ductal adenocarcinoma (CFPAC-1), hepatocellular carcinoma (HepG2), and normal skin fibroblasts (HFF) derived from ATCC (American Type Culture Collection) were cultured in Dulbecco’s Modified Eagle Medium (DMEM) or Minimum Essential Medium (MEM) supplemented with 10% fetal bovine serum (FBS), 2 mM L-glutamine, 100 U/mL penicillin, and 100 µg/mL streptomycin (Lonza, Basel, Switzerland) in a humidified atmosphere with 5% CO2 at 37 °C. For the experiment, carcinoma cell lines and normal human cell lines were seeded in 96-well microtiter plates at a density of 3000 cells per well and 5000 cells per well, respectively, depending on the doubling time of the specific cell line. The test substances were then added at fivefold, tenfold dilutions (0.01 to 100 µM), freshly prepared in the growth medium on the day of testing, and incubated for a further 72 h. After 72 h of incubation, the growth rate of the cells was determined using the MTT assay according to the manufacturer’s guidelines. […] The IC50 values were calculated from the dose–response curves using linear regression analysis. The experiment was performed in tetraplicates in two individual experiments.
Newly synthesized compounds were evaluated for their cytotoxic activity in vitro against four human cancer cell lines, including human breast adenocarcinoma (MCF-7), ductal pancreatic adenocarcinoma (CFPAC-1), colorectal carcinoma (HT-29), and hepatocellular carcinoma (HepG2), as well as on non-cancerous skin fibroblasts (HFF-1), to check for non-specific toxicity. Furthermore, 5-Fluorouracil (5-FU) was used as a reference drug. The results are expressed as 50% inhibitory concentration (IC50) values and are listed in Table 2, Table 3, Table 4 and Table 5.

[2] = system: hepatocellular carcinoma (HepG2) cells; assay: Antiproliferative MTT assay, HepG2; assay type: cell-based, human; conditions: for IC50: Homo sapiens, HepG2, 72 h, 72 h incubation, MTT, mean ± SD; for SI (HepG2): SI = [IC50 HFF]/[IC50 HepG2]
Procedure, shortened: (§1)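 Growth inhibition is measured by MTT after cells are exposed for 72 h to compounds spanning 0.01 to 100 µM. IC50 is derived from dose–response curves by linear regression, with quadruplicate wells in two independent runs.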

[3] = system: colorectal carcinoma (HT-29) cells; assay: Antiproliferative MTT assay, HT-29; assay type: cell-based, human; conditions: for IC50: Homo sapiens, HT-29, 72 h, 72 h incubation, MTT, mean ± SD; for SI (HT-29): SI = [IC50 HFF]/[IC50 HT-29]
Procedure, shortened: as §1

[4] = system: breast adenocarcinoma (MCF7) cells; assay: Antiproliferative MTT assay, MCF-7; assay type: cell-based, human; conditions: for IC50: Homo sapiens, MCF7, 72 h incubation, MTT, mean ± SD; for SI (MCF-7): SI = [IC50 HFF]/[IC50 MCF-7]
Procedure, shortened: as §1

[5] = system: normal skin fibroblasts (HFF-1); assay: Cytotoxicity MTT assay, normal skin fibroblasts; assay type: cell-based, human; conditions: Homo sapiens, HFF-1, 72 h, 72 h incubation, mean ± SD
Procedure, shortened: as §1

[6] = system: pancreatic ductal adenocarcinoma (CFPAC-1) cells; assay: Antiproliferative MTT assay, CFPAC-1; assay type: cell-based, human; conditions: for IC50: Homo sapiens, CFPAC-1, 72 h, 72 h incubation, MTT, mean ± SD; for SI (CFPAC-1): SI = [IC50 HFF]/[IC50 CFPAC-1]
Procedure, shortened: as §1

[7] = system: P-glycoprotein (human MDR1); assay: MDCKII-MDR1 permeability assay; assay type: in vitro ADME, canine cells with over-expressed human MDR1 gene; conditions: dog, MDCK-MDR1; for Papp A→B at 60 min, 10 µM / Papp B→A at 60 min, 10 µM: 37 °C; for efflux ratio at 60 min, 10 µM: <2 no efflux, >2 active efflux
Protocol: (§2) MDCKII-hMDR1 cells were obtained from Solvo Biotechnology, Hungary. DMEM, fetal bovine serum, Glutamax-100, Antibiotic/Antimycotic, DMSO, Dulbecco’s phosphate-buffered saline, and MEM Non-essential amino acids were purchased from Sigma (St. Louis, MO, USA). Bi-directional permeability and P-glycoprotein substrate assessments were carried out in Madin-Darby canine epithelial cells with the over-expressed human MDR1 gene (MDCKII-MDR1), coding for P-glycoprotein. Experimental procedures, as well as cell culture conditions, were the same as previously described. Briefly, compounds (10 µM, 1% DMSO v/v) in duplicate were incubated at 37 °C for 60 min with cell monolayer on 24-well Millicell inserts (Millipore, Burlington, MA, USA) with and without the P-glycoprotein inhibitor Elacridar (2 µM, International Laboratory, San Francisco, CA, USA). The inhibition of P-glycoprotein was verified by amprenavir (Moravek Biochemicals Inc, Brea, CA, USA) and monolayer integrity using Lucifer yellow (Sigma, St. Louis, MO, USA). LC-MS/MS measured compound concentrations and Lucifer yellow was measured on an Infinite F500 (Tecan, Männedorf, CH, Switzerland) using excitation of 485 nm and emission of 530 nm.
(§3) All samples were quantified using tandem mass spectrometry coupled to liquid chromatography. Samples were analyzed on a Sciex API4000 Triple Quadrupole Mass Spectrometer (Sciex, Division of MDS Inc., Toronto, Canada) coupled to a Shimadzu Nexera X2 UHPLC frontend (Kyoto, Japan). Samples were injected onto a UHPLC column (HALO2 C18, 2.1 × 20 mm, 2 µm or Luna Omega 1.6 µm Polar C18 100A, 30 × 2.1 mm) and eluted with a gradient at 50 °C. The mobile phase was composed of acetonitrile/water mixture (9/1, with 0.1% formic acid) and 0.1% formic acid in deionized water. The flow rate was 0.7 mL/min under gradient conditions, leading to a total run time of 1.5–2 min. A positive ion mode with turbo spray, an ion source temperature of 550 °C, and a dwell time of 150 ms were utilized for mass spectrometric detection. Quantitation was performed using multiple reaction monitoring (MRM) at the specific transitions for each compound.

[8] = system: MDCKII-MDR1 cells (P-glycoprotein); assay: MDCKII-MDR1 permeability assay; assay type: in vitro ADME, canine cells with over-expressed human MDR1 gene; conditions: permeability class
Protocol: as §2, §3

[9] = Metabolic stability in mouse liver microsomes; assay type: in vitro ADME; conditions: for Clearance Values (CL): predicted in vivo hepatic clearance from mouse liver microsome t1/2, 1 µM compound; for Clearance Class.: mouse liver microsomes
Excerpt: Mouse liver microsomes were obtained from Corning Life Sciences (Corning, NY, USA). DMSO, nicotinamide adenine dinucleotide phosphate (NADP), glucose-6-phosphate, glucose-6-phosphate dehydrogenase, magnesium chloride, propranolol, caffeine, diclofenac, and phosphate-buffered saline (PBS) were purchased from Sigma (St. Louis, MO, USA). Acetonitrile (ACN) and methanol (MeOH) were obtained from Merck (Darmstadt, Germany). Testosterone was purchased from Steraloids (Newport, RI, USA). Metabolic stability was assessed in mouse liver microsomes. Compounds (final concentration of 1 µM, 0.03% DMSO v/v) were incubated in duplicate in phosphate buffer (50 mM, pH 7.4) at 37 °C together with mouse liver microsomes in the absence and presence of the NADPH cofactor (0.5 mM nicotinamide adenine dinucleotide phosphate, 5 mM glucose-6-phosphate, 1.5 U/mL glucose-6-phosphate dehydrogenase, and 0.5 mM magnesium chloride). Incubation and sampling were performed on a Freedom EVO 200 (Tecan, Männedorf, CH, Switzerland) at […], 10, 20, 30, 45, and 60 min. The reaction was quenched using 3 volumes of a mixture of ACN/MeOH (2:1) containing internal standard (diclofenac), centrifuged, and the supernatants were analyzed using LC-MS/MS. The metabolic activity of the microsomes was verified via simultaneous analysis of several controls including testosterone, propranolol, and caffeine. The in vitro half-life (t1/2) was calculated using GraphPad Prism (v9.0 software) non-linear regression of % of parent compound remaining versus time. In vitro clearance, expressed as µL/min/mg, was estimated from the in vitro half-life (t1/2) and normalized for the protein amount in the incubation mixture, assuming 52.5 mg of protein per gram of liver and using constant values for mouse liver weight/body weight [87.5 g/kg] and mouse liver blood flow (LBF) [131 mL/min/kg].
as §3

Row | Structure (SMILES) | antiproliferative activity (in words) [1] | IC50 [2] | IC50 [3] | IC50 [4] | IC50 [5] | IC50 [6] | Papp A→B at 60 min, 10 µM [7] | Papp B→A at 60 min, 10 µM [7] | efflux ratio at 60 min, 10 µM [7] | Permeability [8] | SI (MCF-7) [4] | SI (CFPAC-1) [6] | Clearance Values (CL) [9] | SI (HepG2) [2] | SI (HT-29) [3] | Clearance Class. [9]
1 | OCC(c1ccccc1)n1cc(Cn2ccc3ccccc32)nn1 (stereo not drawn) [Compound 26a, 1-((1-(2-Hydroxy-1-phenylethyl)-1H-1,2,3-triazol-4-yl)methyl)-1H-indole] | deprived of any activity | > 100 µM | > 100 µM | > 100 µM | > 100 µM | > 100 µM |  |  |  |  |  |  |  |  |  | 
2 | OC(Cn1cc(Cn2ccc3ccccc32)nn1)c1ccccc1 (stereo not drawn) [Compound 26b, 1-((1-(2-Hydroxy-2-phenylethyl)-1H-1,2,3-triazol-4-yl)methyl)-1H-indole] | deprived of any activity | > 100 µM | > 100 µM | > 100 µM | > 100 µM | > 100 µM |  |  |  |  |  |  |  |  |  | 
3 | OCC(c1ccccc1)n1cc(Cn2cnc3ccccc32)nn1 (stereo not drawn) [Compound 31a, 1-((1-(2-Hydroxy-1-phenylethyl)-1H-1,2,3-triazol-4-yl)methyl)-1H-benzimidazole] | deprived of any activity | > 100 µM | > 100 µM | > 100 µM | > 100 µM | > 100 µM |  |  |  |  |  |  |  |  |  | 
4 | OC(Cn1cc(Cn2cnc3ccccc32)nn1)c1ccccc1 (stereo not drawn) [Compound 31b, 1-((1-(2-Hydroxy-2-phenylethyl)-1H-1,2,3-triazol-4-yl)methyl)-1H-benzimidazole] | deprived of any activity | > 100 µM | > 100 µM | 91 ± 7.2 µM | > 100 µM | > 100 µM |  |  |  |  |  |  |  |  |  | 
5 | OC(Cn1cc(Cn2ccc3c(Cl)ncnc32)nn1)c1ccc(Br)cc1 (stereo not drawn) [Compound 44b, 4-Chloro-7-((1-(2-hydroxy-2-(4-bromophenyl)ethyl)-1H-1,2,3-triazol-4-yl)methyl)-7H-pyrrolo[2,3-d]pyrimidine] |  | 32 ± 3.2 µM | 30 ± 0.7 µM | 25 ± 6.4 µM | 27 ± 11.9 µM | 15 ± 0.2 µM | 25.3 ×10⁻⁶ cm/s | 62.7 ×10⁻⁶ cm/s | 2.5 | highest permeability and HIGH | 1.1 | 1.8 | 84% |  |  | 
6 | OC(Cn1cc(Cn2ccc3c(Cl)ncnc32)nn1)c1ccc(C(F)(F)F)cc1 (stereo not drawn) [Compound 45b, 4-Chloro-7-((1-(2-hydroxy-2-(4-(trifluoromethyl)phenyl)ethyl)-1H-1,2,3-triazol-4-yl)methyl)-7H-pyrrolo[2,3-d]pyrimidine] |  | 32 ± 16.1 µM | 19 ± 7.5 µM | 21 ± 1.6 µM | 12 ± 3.1 µM | 13 ± 2.2 µM | 26.5 ×10⁻⁶ cm/s | 90.7 ×10⁻⁶ cm/s | 3.4 | highest permeability and HIGH | 0.6 | 0.9 | 90% |  |  | 
7 | OCC(c1ccccc1)n1cc(Cn2cnc3c(Cl)nccc32)nn1 (stereo not drawn) [Compound 46a, 4-Chloro-1-((1-(2-hydroxy-1-phenylethyl)-1H-1,2,3-triazol-4-yl)methyl)-1H-imidazo[4,5-c]pyridine] | deprived of any activity | > 100 µM | > 100 µM | > 100 µM | > 100 µM | > 100 µM |  |  |  |  |  |  |  |  |  | 
8 | OC(Cn1cc(Cn2cnc3c(Cl)nccc32)nn1)c1ccccc1 (stereo not drawn) [Compound 46b, 4-Chloro-1-((1-(2-hydroxy-2-phenylethyl)-1H-1,2,3-triazol-4-yl)methyl)-1H-imidazo[4,5-c]pyridine] | deprived of any activity | > 100 µM | > 100 µM | > 100 µM | > 100 µM | > 100 µM |  |  |  |  |  |  |  |  |  | 
9 | O[C@@H](Cn1cc(Cn2cnc3c(Cl)ncnc32)nn1)c1ccc(C(F)(F)F)cc1 [Compound (R)-40b, (R)-6-Chloro-9-((1-(2-hydroxy-2-(4-(trifluoromethyl)phenyl)ethyl)-1H-1,2,3-triazol-4-yl)methyl)-9H-purine] |  | 8 ± 0.6 µM | 6 ± 0.6 µM | 36 ± 23.1 µM | 6 ± 4.8 µM | 16 ± 2.6 µM | 2.2 ×10⁻⁶ cm/s | 45.2 ×10⁻⁶ cm/s | 21 | MODERATE |  |  |  | 0.7 | 1.0 | LOW (<30% low)
10 | O[C@H](Cn1cc(Cn2cnc3c(Cl)ncnc32)nn1)c1ccc(C(F)(F)F)cc1 [Compound (S)-40b, (S)-6-Chloro-9-((1-(2-hydroxy-2-(4-(trifluoromethyl)phenyl)ethyl)-1H-1,2,3-triazol-4-yl)methyl)-9H-purine] |  | 7 ± 1.5 µM | 5 ± 0.1 µM | 10 ± 0.4 µM | 12 ± 3.4 µM | 19 ± 2.4 µM | 2.2 ×10⁻⁶ cm/s | 42.9 ×10⁻⁶ cm/s | 19.5 | MODERATE |  |  |  | 1.7 | 2.4 | LOW (<30% low)
